Publication PMC12040169 (PLOS Biology, 2025)

Assay: in vitro
Conditions: human, hela cells, % viability

Compound	viability at 28.5 h, 10 µM [%]
COc1ccccc1CNCCc1ccc(S(N)(=O)=O)cc1 [CBK269852C]	99.7
COc1cc(C#N)ccc1OCc1ccc2nc(C(F)(F)F)cc(Cl)c2c1 [CBK002589]	98.3
COc1cccc(NC(=O)CN(c2cccc(C(C)=O)c2)S(C)(=O)=O)c1 [CBK267502]	111
O=C(CN1CCN(c2ccccn2)CC1)N1c2ccccc2Sc2ccc(C(F)(F)F)cc21 [CBK268835G]	98.8
Cc1nnc(CN(CC2CCCO2)C2CCC(C)CC2)o1 (stereo not drawn) [CBK304824]	94.7
CSc1c(C#N)c(-c2cc(C(C)(C)C)on2)nn1C [CBK006360]	96.4
Cc1ccc([N+](=O)[O-])cc1NC1OC(C(O)CO)C(O)C1O (stereo not drawn) [CBK262031]	98
CCNC(=O)N[C@H]1CC[C@]2(C)CCC([C@H](C)C(=O)N3CCCCC3)[C@H](O)[C@H]2[C@@H]1C (stereo partly drawn) [CBK289455]	84.7
COc1cc(C=C2C(=O)OC(C)(C(C)(C)C)OC2=O)cc(Br)c1OC (stereo not drawn) [CBK028893]	96.5
CN(C)CCCC(=O)Nc1cccc2[nH]ccc12 [CBK159660]	99.9
O=C(O)C(Cc1c[nH]c2ccccc12)N1Cc2ccccc2C1=O (stereo not drawn) [CBK287056]	82
O=C(O)CCC(=O)Nc1ccc(-c2nc3ccccc3o2)cc1 [CBK261330]	98
CC(C)(C)c1cnc(C(=O)NC2CCCN(c3ncccn3)C2)o1 (stereo not drawn) [CBK305777]	92.3
O=C(NC1CCCCCC1)c1[nH]nc(O)c1Cc1c(Cl)cccc1Cl [CBK107847]	91.9
CNC(=O)C1(Cc2ccc(-c3ccccc3)cc2)CCN(C(=O)C2CCCCC2)CC1 [CBK285762]	113
NC(=S)NNC(=O)Nc1ccccc1 [CBK261595]	96.6
CC(C)(C)OC(=O)NCCNCc1cc(F)cc(F)c1 [CBK056698]	90.3
Cc1cccc(C(=O)O)c1NC(=O)Cc1cccc2ccccc12 [CBK268361]	111
NS(=O)(=O)c1cnc(Cl)c(Br)c1 [CBK034079]	92.5
c1ccc(CCNc2nc(-c3ccc(N4CCOCC4)cc3)cn3ccnc23)nc1 [CBK037271]	96.4
COc1ccccc1CN1CCCC(c2nc(C)n3ccccc23)C1 (stereo not drawn) [CBK283026]	87.6
CCn1nc(C)c(-c2cncn2CC(C)N2CCCCC2)c1C (stereo not drawn) [CBK281808]	102
CCOC(=O)C1(Cc2cc(-c3ccccc3)no2)CCCNC1 (stereo not drawn) [CBK284583]	98.9

Compound	viability at 28.5 h, 10 µM [%]
CCN1CCCN(c2ccc(-n3ccc(C)n3)nn2)CC1 [CBK306297]	108
O=C(NC1CCCCC1)C1CCCN(C(=O)NCc2ccccn2)C1 (stereo not drawn) [CBK305814]	114
COC(=O)CCc1ccc(S(=O)(=O)N2CCN(Cc3ccc(O)c(F)c3)CC2)cc1 [CBK062813]	88.9
CCNC(=O)N1CC2(CCN(CCS(=O)(=O)c3ccccc3)CC2)c2ccccc21 [CBK126698]	90.9
CCOC(=O)CN1C(=O)S/C(=C/c2cc(C)n(-c3cc(C)ccn3)c2C)C1=O [CBK264731]	95.2
CCC(O)CN1CCCC(c2nc3cc(C)ccc3[nH]2)C1 (stereo not drawn) [CBK304854]	88.8
O=S(=O)(c1c(F)cccc1F)N1CCN(Cc2ccc3c(c2)OCO3)CC1 [CBK074600]	91.5
C=CCn1c(C)c(CN2CCc3c(nc(C)[nH]c3=O)C2)c2ccccc21 [CBK283990]	88.6
CCOC(=O)C1(C2CCCCC2)CCN(C(=O)/C=C/c2ccc3c(c2)OCO3)CC1 [CBK136924]	92.8
O=C(NC1CCc2ccccc21)c1cnc(-c2ccc(Cl)cc2)c(-c2ccc(O)cc2)c1 (stereo not drawn) [CBK036629]	91
CN(C)c1ccc(-c2nnc([C@H]3CCN(C(=O)c4ccccc4)C3)o2)cc1 [CBK289407]	85.7
COc1ccc(C(=O)CSc2nnc(C)[nH]2)cc1[N+](=O)[O-] [CBK264350]	95.5
Cn1c(OCc2cccnc2)nc2c1c(=O)n(Cc1ccc(Cl)c(Cl)c1)c(=O)n2C [CBK267498]	84.2
Cc1c(C(=O)C2=C(O)C(=O)N(Cc3cccnc3)C2c2cccnc2)cnn1-c1ccccc1 (stereo not drawn) [CBK266543]	105
Nc1nnc(Nc2ccc(Cl)cc2)[nH]1 [CBK017433]	91.7
COc1ccc(CCN2C(=O)N[C@@H](CCC(=O)NC3CC3)C2=O)cc1 [CBK288001]	109
Cc1cc(CN(C)C(=O)Cc2csc(NC(=O)c3ccoc3C)n2)no1 [CBK305779]	102
O=C(O)CCn1cc(CN2CCOc3ccccc3C2)cn1 [CBK306507]	101
CN(CCO)S(=O)(=O)c1cccc(C(=O)O)c1 [CBK266657]	89.4
CSc1ccc(-c2nccnc2OCCN(C(C)C)C(C)C)cc1 [CBK106805]	107
c1coc(-c2nc3cnccn3c2NC2CCCCC2)c1 [CBK283498]	93.6
CCn1c(=O)n(CC(=O)NCc2cccc(F)c2)c2cccnc21 [CBK283891]	86.4
